Some test systems named below: KM12 colon; NCI-H460 lung; SN12C renal; K-562 leukemia; SK-MEL-28 melanoma; NCI/ADR-RES ovarian; HCT-15 colon; SK-OV-3 ovarian; SW-620 colon; MOLT-4 leukemia; RPMI-8226 leukemia; ACHN renal; MDA-MB-435; HOP-62 NSCLC; SNB-19 CNS; RXF 393 renal; SK-MEL-2 melanoma; MALME-3M melanoma; CAKI-1 renal.
Holding throughout (assay): inhibition of tumour cell growth, NCI panel, 48 h

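Grown in 96-well plates, cells were treated for 48 hours with each compound at five concentrations. Insufficient inhibition: endpoint recorded as highest concentration tested. Definition used: TGI = concentration required for complete inhibition of growth.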

`CN(C)C12C=CC=CC3=C(c4ccccc4)C(c4ccccc4)=C(c4ccccc4)C31c1ccccc1C2` (configuration not stated): the TGI in the test on KM12 colon, with NCI-H460 lung, with SN12C renal, in the test with K-562 leukemia, with SK-MEL-28 melanoma and with NCI/ADR-RES ovarian was > 100 µM in each case. Besides, the TGI with HCT-15 colon, with SK-OV-3 ovarian, in the test with SW-620 colon, in the test on MOLT-4 leukemia, in the test with RPMI-8226 leukemia and in the test with ACHN renal was > 100 µM throughout. In addition, the TGI with MDA-MB-435, in the test on HOP-62 NSCLC and in the test with SNB-19 CNS was > 100 µM in each case.

In the case of `COC(=O)c1ccccc1C1CN=NC12Cc1cc3c(cc1C2=O)CCC3` (configuration not stated), the TGI with KM12 colon, in the test with NCI-H460 lung, with SN12C renal, in the test with K-562 leukemia, with RXF 393 renal and in the test with SK-MEL-28 melanoma was > 100 µM in each case. Also, the TGI in the test on NCI/ADR-RES ovarian, with HCT-15 colon, with SK-OV-3 ovarian, in the test with SK-MEL-2 melanoma, in the test on MALME-3M melanoma and in the test with SW-620 colon was > 100 µM throughout. The TGI in the test on MOLT-4 leukemia, with CAKI-1 renal, with ACHN renal, in the test with MDA-MB-435, in the test with HOP-62 NSCLC and in the test on SNB-19 CNS was > 100 µM in each case.

In the case of `O=c1nc(N2CCCCC2)sc2[nH]c3ccccc3c12`, the TGI is > 100 µM with KM12 colon; > 100 µM in the test on NCI-H460 lung; > 100 µM in the test on SN12C renal; > 100 µM with K-562 leukemia; > 100 µM in the test with SK-MEL-28 melanoma; 25.7 µM with NCI/ADR-RES ovarian. Moreover, the TGI in the test on HCT-15 colon, in the test with SK-OV-3 ovarian, in the test on SK-MEL-2 melanoma, in the test on MALME-3M melanoma, in the test on SW-620 colon and in the test with MOLT-4 leukemia was > 100 µM throughout. Also, the TGI with CAKI-1 renal, in the test on RPMI-8226 leukemia, with ACHN renal, in the test with MDA-MB-435, with HOP-62 NSCLC and in the test with SNB-19 CNS was > 100 µM each time.

Regarding `C#CC(O)/C=C/C(O)CCCC(O)CC#CC(O)C#CCCCCC(O)/C=C/CCCCCC(=O)CCCCCCCCCCCCCC(O)C(O)C#CC(=O)O` (configuration not stated), the TGI in the test with KM12 colon, with NCI-H460 lung, in the test with SN12C renal, with K-562 leukemia, in the test on SK-MEL-28 melanoma and in the test on NCI/ADR-RES ovarian was > 25 µM throughout. In addition, the TGI in the test with HCT-15 colon, with SK-OV-3 ovarian, in the test on SK-MEL-2 melanoma, in the test on MALME-3M melanoma, in the test on MOLT-4 leukemia and in the test with CAKI-1 renal was > 25 µM throughout. Moreover, the TGI in the test with RPMI-8226 leukemia, with ACHN renal, in the test with MDA-MB-435, with HOP-62 NSCLC and in the test on SNB-19 CNS was > 25 µM in each case.

For `O=C(c1ccc(Cl)c(Cl)c1)N(C(=S)OC12CC3CC(CC(C3)C1)C2)c1ccccc1`, the TGI with KM12 colon, in the test with NCI-H460 lung, in the test on SN12C renal, in the test on K-562 leukemia, with RXF 393 renal and in the test on SK-MEL-28 melanoma was > 100 µM throughout. Also, the TGI with NCI/ADR-RES ovarian is > 100 µM; in the test with HCT-15 colon, > 100 µM; in the test on SK-OV-3 ovarian it was > 100 µM; with SK-MEL-2 melanoma, 40.5 µM; in the test with MALME-3M melanoma, > 100 µM; in the test on SW-620 colon, > 100 µM. Besides, the TGI with CAKI-1 renal, in the test with ACHN renal, in the test with MDA-MB-435, in the test with HOP-62 NSCLC and in the test with SNB-19 CNS was > 100 µM throughout.

Take `O=C(O[C@H](/C=C/c1ccccc1)P1(=O)N(Cc2ccccc2)[C@H]2CCCC[C@@H]2N1Cc1ccccc1)c1ccccc1`: the TGI in the test with KM12 colon is 18.1 µM; with NCI-H460 lung, > 100 µM; in the test on SN12C renal, 14.5 µM; with K-562 leukemia, > 100 µM; with SK-MEL-28 melanoma, > 100 µM; in the test on NCI/ADR-RES ovarian, > 100 µM. The TGI with HCT-15 colon is > 100 µM; in the test on SK-OV-3 ovarian, > 100 µM; in the test on SK-MEL-2 melanoma it was 6.19 µM; in the test on MALME-3M melanoma, 25.6 µM; in the test with SW-620 colon, > 100 µM; in the test with CAKI-1 renal, 5.93 µM. The TGI in the test on RPMI-8226 leukemia was 17.8 µM; in the test with ACHN renal, > 100 µM; in the test on MDA-MB-435, 46.2 µM; with HOP-62 NSCLC, > 100 µM; in the test with SNB-19 CNS, > 100 µM.

Take `CC1CCC2C(C)C(OC(=O)CCC(=O)O)OC3OC4(C)CCC1C32OO4` (configuration not stated): the TGI in the test on KM12 colon was 23 µM; in the test on NCI-H460 lung, 33.4 µM; in the test on SN12C renal, > 100 µM; in the test with K-562 leukemia, 19.8 µM; in the test on SK-MEL-28 melanoma, > 100 µM; in the test with NCI/ADR-RES ovarian it was > 100 µM. Further, the TGI in the test with HCT-15 colon is > 100 µM; in the test with SK-OV-3 ovarian, > 100 µM; in the test with SK-MEL-2 melanoma, 42.3 µM; in the test on SW-620 colon, > 100 µM; in the test on MOLT-4 leukemia, 15 µM; in the test with CAKI-1 renal, > 100 µM. For the same molecule, the TGI was 24.1 µM in the test on RPMI-8226 leukemia; 18.3 µM with ACHN renal; 13.6 µM in the test on MDA-MB-435; > 100 µM in the test with HOP-62 NSCLC; > 100 µM with SNB-19 CNS.

Regarding `COc1ccc(/C(=N/Nc2nc3ccccc3n2Cc2ccccc2)C(=O)O)cc1`, the TGI was > 100 µM in the test with KM12 colon; 21.4 µM in the test with NCI-H460 lung; > 100 µM in the test on SN12C renal; 68.5 µM with K-562 leukemia; > 100 µM in the test with SK-MEL-28 melanoma; 54 µM in the test on NCI/ADR-RES ovarian. The TGI is > 100 µM in the test on HCT-15 colon; 55 µM in the test on SK-OV-3 ovarian; > 100 µM with SK-MEL-2 melanoma; 91.7 µM with MALME-3M melanoma; > 100 µM in the test with SW-620 colon; 79.6 µM with MOLT-4 leukemia. In addition, the TGI is 45.8 µM in the test with CAKI-1 renal; 55.8 µM in the test on RPMI-8226 leukemia; > 100 µM with ACHN renal; > 100 µM with MDA-MB-435; > 100 µM in the test with HOP-62 NSCLC; > 100 µM with SNB-19 CNS.
